Data as given in US8569295B2, “Bicyclic urea compounds” (Merck Patent GmbH, priority 2009, dated 2013).

Key:
RON kinase = molecular target: T1, RON kinase (Homo sapiens, UniProt Q04912); experiment: RON kinase biochemical mobility shift assay (Caliper Desktop Profiler); settings: RON kinase inhibition
T1 construct: purchased Caliper Life Sciences
Description: The Aurora assays described here are performed on two Caliper Life Sciences systems: the LC3000 and the Desktop Profiler. The RON kinase assays are performed on the Desktop Profiler only. These provide data on enzyme activity via measurement of the relative amounts of phosphorylated or unphosphorylated fluorescently labelled substrate peptide at the end of an enzymatic reaction. These different states of peptide are resolved by applying a potential difference across the sample. The presence of the charged phosphate group on the product (as opposed to the substrate) causes a different peptide mobility between the two peptides. This is visualized by excitation of the fluorescent label on the substrate and product peptides and represented as peaks within the analysis software.
The Desktop Profiler utilizes the same priniciple as the LC3000 for calculating percentage conversion of a substrate to product. Caliper Life Sciences provides proprietary flash frozen pre-made 384 well plates containing selected kinases. Each column in the 384 well plate contains a particular selected kinase. A second plate, the ‘substrate plate’ contains a mix of fluorescently labeled peptide substrate and ATP. These are arranged in columns so that transfer for substrate plate to enzyme plate provides the correct enzyme with the correct substrate/ATP concentration. Compounds are added to a thawed enzyme plate in the desired format, in single concentrations. Reactions are initiated by transfer of the substrate/ATP mix from the substrate plate. The enzyme plate is incubated for 90 minutes at 25 C. The reaction is stopped by addition of 70 ul of Stop Buffer (100 mM HEPES pH 7.5, 0.015% Brij-35, 10 mM EDTA (Sigma, E7889)).
Reading of the plate in the Profiler is identical to the LC3000, and the ratio between substrate and product peaks provides the activity of the enzyme in that well. This is best represented by a plate heat map which colors each well by percent inhibition as compared to positive and negative controls (no inhibitors and no ATP respectively).

GST-Aurora A = molecular target: T2, GST-Aurora A (Homo sapiens, UniProt O14965); experiment: Aurora A kinase biochemical mobility shift assay (Caliper LC3000 / Desktop Profiler); settings: AK A (Aurora kinase A) inhibition
T2 construct: N-terminal GST fusion with full length Aurora A (1-403 amino acids); purchased Carna Biosciences 05-101
T2 sequence (O14965 1-403): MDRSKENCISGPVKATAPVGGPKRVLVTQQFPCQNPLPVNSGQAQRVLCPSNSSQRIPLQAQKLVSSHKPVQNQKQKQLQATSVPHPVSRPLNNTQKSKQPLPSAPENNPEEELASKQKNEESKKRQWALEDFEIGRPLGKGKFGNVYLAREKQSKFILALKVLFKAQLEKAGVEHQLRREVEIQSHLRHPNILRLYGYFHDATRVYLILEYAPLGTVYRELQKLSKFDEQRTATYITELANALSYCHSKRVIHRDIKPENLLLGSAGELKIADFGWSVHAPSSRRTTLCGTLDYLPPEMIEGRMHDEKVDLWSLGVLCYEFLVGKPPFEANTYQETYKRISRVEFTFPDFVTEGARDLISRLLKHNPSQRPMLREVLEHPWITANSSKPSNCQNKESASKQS
Summary of the method: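 Full-length N-terminal GST-Aurora A (0.067 ng/ul) phosphorylated 1 uM FITC-LRRASLG at 15 uM ATP in 100 mM HEPES pH 7.5, 1 mM MgCl2, 1 mM DTT, 0.015% Brij-35 for 90 min at 25 C, stopped with EDTA. Substrate-to-product conversion was measured by off-chip mobility shift; IC50 came from dose-response curves.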

normal human cell growth = settings: in vitro, normal human cells vs tumor cells of various origins; cited from earlier work

T1 sequence (Q04912 25-1400): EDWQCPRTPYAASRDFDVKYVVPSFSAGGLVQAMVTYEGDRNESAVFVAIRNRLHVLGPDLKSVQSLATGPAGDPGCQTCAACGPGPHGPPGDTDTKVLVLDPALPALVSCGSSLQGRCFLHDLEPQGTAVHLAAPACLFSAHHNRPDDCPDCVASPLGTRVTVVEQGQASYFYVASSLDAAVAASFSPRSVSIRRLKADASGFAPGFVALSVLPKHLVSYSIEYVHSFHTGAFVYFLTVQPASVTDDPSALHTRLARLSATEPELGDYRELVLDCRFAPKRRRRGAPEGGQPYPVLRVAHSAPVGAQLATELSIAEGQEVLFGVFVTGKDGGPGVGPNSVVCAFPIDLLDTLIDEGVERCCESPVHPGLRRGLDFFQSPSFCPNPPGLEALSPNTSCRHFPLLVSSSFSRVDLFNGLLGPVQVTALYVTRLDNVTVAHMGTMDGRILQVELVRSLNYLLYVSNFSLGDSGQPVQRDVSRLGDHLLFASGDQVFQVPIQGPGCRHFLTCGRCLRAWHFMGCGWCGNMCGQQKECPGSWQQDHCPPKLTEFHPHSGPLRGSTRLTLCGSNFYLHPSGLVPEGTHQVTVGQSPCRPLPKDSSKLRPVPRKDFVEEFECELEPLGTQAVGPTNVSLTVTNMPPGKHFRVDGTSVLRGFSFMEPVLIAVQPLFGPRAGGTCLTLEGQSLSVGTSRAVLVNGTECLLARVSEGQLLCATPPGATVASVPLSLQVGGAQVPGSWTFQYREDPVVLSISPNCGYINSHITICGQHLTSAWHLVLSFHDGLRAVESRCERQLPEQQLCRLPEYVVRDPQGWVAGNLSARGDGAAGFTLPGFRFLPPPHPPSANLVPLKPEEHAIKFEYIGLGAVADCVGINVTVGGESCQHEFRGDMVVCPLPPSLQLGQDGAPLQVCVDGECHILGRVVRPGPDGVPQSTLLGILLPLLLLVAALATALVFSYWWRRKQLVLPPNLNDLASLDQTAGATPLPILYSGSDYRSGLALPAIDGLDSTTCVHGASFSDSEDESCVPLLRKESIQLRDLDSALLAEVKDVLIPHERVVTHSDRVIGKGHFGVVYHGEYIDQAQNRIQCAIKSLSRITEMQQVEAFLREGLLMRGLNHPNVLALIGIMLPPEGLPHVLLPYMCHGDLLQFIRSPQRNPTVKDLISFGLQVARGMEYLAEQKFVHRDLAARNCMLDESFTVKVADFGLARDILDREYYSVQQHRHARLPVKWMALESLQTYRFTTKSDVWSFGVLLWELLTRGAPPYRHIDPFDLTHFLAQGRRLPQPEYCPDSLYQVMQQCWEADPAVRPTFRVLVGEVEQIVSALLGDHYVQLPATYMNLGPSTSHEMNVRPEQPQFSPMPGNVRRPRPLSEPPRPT

| SMILES | IC50 (RON kinase) | IC50 (GST-Aurora A) | fold less effective at inhibiting normal human cell growth than tumor cell proliferation (normal human cell growth) |
| --- | --- | --- | --- |
| O=C1NCc2c(Oc3ccc(NC(=O)c4cc(Cl)cnc4Cl)cc3F)ccnc2N1 [Example 65, 2,5-dichloro-N-{3-fluoro-4-[(2-oxo-1,2,3,4-tetrahydropyrido[2,3-d]pyrimidin-5-yl)oxy]phenyl}-nicotinamide] | 10 to 100 nM | 10 to 100 nM |  |
| O=C(Nc1cccc(Cl)c1)Nc1ccc(Oc2ccnc3c2CNC(=O)N3)c(F)c1 [Example 67, N-(3-chlorophenyl)-N′-{3-fluoro-4-[(2-oxo-1,2,3,4-tetrahydropyrido[2,3-d]pyrimidin-5-yl)oxy]phenyl}urea] | 10 to 100 nM | 10 to 100 nM |  |
| O=C1NCc2c(Oc3ccc(NC(=O)c4cccc(Br)c4)cc3F)ccnc2N1 [Example 66, 3-bromo-N-{3-fluoro-4-[(2-oxo-1,2,3,4-tetrahydropyrido[2,3-d]pyrimidin-5-yl)oxy]phenyl}-benzamide] | 10 to 100 nM | 10 to 100 nM |  |
| O=C1NCc2c(Oc3ccc(NS(=O)(=O)c4ccccc4F)cc3F)ccnc2N1 [Example 70, 2-fluoro-N-{3-fluoro-4-[(2-oxo-1,2,3,4-tetrahydropyrido[2,3-d]pyrimidin-5-yl)oxy]phenyl}benzenesulfonamide] | 100 to 1000 nM | 100 to 1000 nM |  |
| COc1cccc(S(=O)(=O)Nc2ccc(Oc3ccnc4c3CNC(=O)N4)c(F)c2)c1 [Example 71, N-{3-fluoro-4-[(2-oxo-1,2,3,4-tetrahydropyrido[2,3-d]pyrimidin-5-yl)oxy]phenyl}-3-methoxybenzenesulfonamide] | 100 to 1000 nM | 100 to 1000 nM |  |
| O=C(Nc1cccc(C(F)(F)F)c1)Nc1ccc(Oc2ccnc3c2CNC(=O)N3)c(F)c1 [Example 270, 1-[3-Fluoro-4-(2-oxo-1,2,3,4-tetrahydro-pyrido[2,3-d]pyrimidin-5-yloxy)-phenyl]-3-(3-trifluoromethyl-phenyl)-urea] | 10 to 100 nM |  |  |
| O=C1NCc2c(Nc3ccc(OC(F)(F)F)c(Br)c3)ccnc2N1 [Example 195, 5-(3-Bromo-4-trifluoromethoxy-phenylamino)-3,4-dihydro-1H-pyrido[2,3-d]pyrimidin-2-one] | 100 to 1000 nM |  |  |
| Nc1nc(Nc2ccc(S(N)(=O)=O)cc2)nn1C(=O)c1c(F)cccc1F [JNJ-7706621] |  |  | about 10 fold |
| O=C1NCc2c(Oc3ccc(NC(=O)c4cccc(F)c4)cc3F)ccnc2N1 [Example 98, 3-fluoro-N-{3-fluoro-4-[(2-oxo-1,2,3,4-tetrahydropyrido[2,3-d]pyrimidin-5-yl)oxy]phenyl}benzamide] | 10 to 100 nM |  |  |
| Cc1c(C(=O)Nc2ccc(Oc3ccnc4c3C3OCCCN3C(=O)N4)c(F)c2)c(=O)n(-c2ccccc2)n1CC(C)(C)O (centres unmarked) [Example 75, N-{3-fluoro-4-[(6-oxo-3,4,7,11b-tetrahydro-2H,6H-pyrido[2′,3′:4,5]pyrimido[6,1-b][1,3]oxazin-11-yl)oxy]phenyl}-1-(2-hydroxy-2-methylpropyl)-5-methyl-3-oxo-2-phenyl-2,3-dihydro-1H-pyrazole-4-carboxamide] | 100 to 1000 nM |  |  |
| Cc1c(C(=O)Nc2ccc(Oc3ccnc4c3CNC(=O)N4)c(F)c2)c(=O)n(-c2ccccc2)n1CC(C)(C)O [Example 74, N-{3-fluoro-4-[(2-oxo-1,2,3,4-tetrahydropyrido[2,3-d]pyrimidin-5-yl)oxy]phenyl}-1-(2-hydroxy-2-methylpropyl)-5-methyl-3-oxo-2-phenyl-2,3-dihydro-1H-pyrazole-4-carboxamide] | 100 to 1000 nM |  |  |
| O=C(Nc1cccc(F)c1)Nc1ccc(Oc2ccnc3c2CNC(=O)N3)c(F)c1 [Example 269, 1-[3-Fluoro-4-(2-oxo-1,2,3,4-tetrahydro-pyrido[2,3-d]pyrimidin-5-yloxy)-phenyl]-3-(3-fluoro-phenyl)-urea] | 10 to 100 nM |  |  |
| O=C(Nc1ccc([N+](=O)[O-])cc1)Nc1ccc(Oc2ccnc3c2CNC(=O)N3)c(F)c1 [Example 272, 1-[3-Fluoro-4-(2-oxo-1,2,3,4-tetrahydro-pyrido[2,3-d]pyrimidin-5-yloxy)-phenyl]-3-(4-nitro-phenyl)-urea] | 10 to 100 nM |  |  |
| CCN1Cc2c(Oc3ccc(NC(=O)Nc4c(-c5ccccc5)noc4C)cc3F)ccnc2NC1=O [Example 266, 1-[4-(3-Ethyl-2-oxo-1,2,3,4-tetrahydro-pyrido[2,3-d]pyrimidin-5-yloxy)-3-fluoro-phenyl]-3-(5-methyl-3-phenyl-isoxazol-4-yl)-urea] | 100 to 1000 nM |  |  |
| CCN1Cc2c(Oc3ccc(NC(=O)Nc4cc(C)oc4C(F)(F)F)cc3F)ccnc2NC1=O [Example 268, 1-[4-(3-Ethyl-2-oxo-1,2,3,4-tetrahydro-pyrido[2,3-d]pyrimidin-5-yloxy)-3-fluoro-phenyl]-3-(5-methyl-2-trifluoromethyl-furan-3-yl)-urea] | 10 to 100 nM |  |  |
